The results in this text go back to US12324802B2, “Modulators of cystic fibrosis transmembrane conductance regulator” (Vertex Pharmaceuticals Incorporated, priority 2020, dated 2025).

SMILES strings stand for the structures. Read-outs that look alike come from different tables or passages of the source.

In turn, `CC(C)(C)OC(=O)Nc1cc(C(F)(F)F)c2nc1-c1nnc(o1)[C@@](OCc1ccccc1)(C(F)(F)F)CCC=CCC(C(=O)N1CCCC1)N2` (mixture of isomers) registered a ring closure, isolated yield (from C=CCC[C@@](OCc1ccccc1)(c1nnc(-c2nc(NC(CC=C)C(=O)N3CCCC3)c(C(F)(F)F)cc2NC(=O)OC(C)(C)C)o1)C(F)(F)F, rcm bond, 14-membered ring, Zhan catalyst-1B, DCE, 1.4 mM, 75.0 °C, 2.0 h) of 66%.

Molecule `CC1(C)CCCOCC(OCc2ccccc2)(C(F)(F)F)C2=NN=C(O2)c2nc(c(C(F)(F)F)cc2[N+](=O)[O-])N1` (stereo not shown) registered a ring closure, isolated yield (from Cc1ccc(S(=O)(=O)Oc2nc(-c3nnc(C(COCCCC(C)(C)N)(OCc4ccccc4)C(F)(F)F)o3)c([N+](=O)[O-])cc2C(F)(F)F)cc1, snar bond, 14-membered ring, DIEA, DCM, 1.47 mM) of 45%.

Molecule `CC(=O)OC1C=CC[C@](OCc2ccccc2)(C(F)(F)F)C2=NN=C(O2)c2nc(c(C(F)(F)F)cc2[N+](=O)[O-])NC(C)(C)C1` (mixture of isomers) came in with a ring closure, isolated yield (from C=CC[C@@](OCc1ccccc1)(c1nnc(-c2nc(NC(C)(C)CC(C=C)OC(C)=O)c(C(F)(F)F)cc2[N+](=O)[O-])o1)C(F)(F)F, rcm bond, 14-membered ring, Zhan catalyst-1B, toluene, 10.6 mM, 110.0 °C, 19.0 h) of 20%.

On to `O=[N+]([O-])c1cc(C(F)(F)F)c2nc1-c1nnc(o1)C(OCc1ccccc1)(C(F)(F)F)CCC=CC[C@@H]1COCCN21` (mixture of isomers), for which the ring closure, isolated yield (from C=CCCC(OCc1ccccc1)(c1nnc(-c2nc(N3CCOC[C@H]3CC=C)c(C(F)(F)F)cc2[N+](=O)[O-])o1)C(F)(F)F, rcm bond, 14-membered ring, Zhan-1B, DCE, 15.9 mM, 70.0 °C, 3.5 h) amounted to 56%.

For the setting “from CC(C)(COCCCC(OCc1ccccc1)(C(=O)O)C(F)(F)F)Nc1nc(C(=O)NN)c([N+](=O)[O-])cc1C(F)(F)F, amide bond, 15-membered ring, BOP/HOBt/DIEA, DMF, 2.78 mM, 25.0 °C, 24.0 h”, `CC1(C)COCCCC(OCc2ccccc2)(C(F)(F)F)C(=O)NNC(=O)c2nc(c(C(F)(F)F)cc2[N+](=O)[O-])N1` (stereo not shown) came in with a ring closure, isolated yield of 28%.

`CC1CC=CCCC(OCc2ccccc2)(C(F)(F)F)C2=NN=C(O2)c2nc(c(C(F)(F)F)cc2[N+](=O)[O-])N1` (mixture of isomers) registered a ring closure, isolated yield (from C=CCCC(OCc1ccccc1)(c1nnc(-c2nc(NC(C)CC=C)c(C(F)(F)F)cc2[N+](=O)[O-])o1)C(F)(F)F, rcm bond, 14-membered ring, Zhan-1B, DCE, 1.85 mM, 75.0 °C, 3.0 h) of 61%.

`O=[N+]([O-])c1cc(C(F)(F)F)c2nc1-c1nnc(o1)[C@@](OCc1ccccc1)(C(F)(F)F)CCC=CCC(c1ncccn1)N2` (mixture of isomers) gave a ring closure, isolated yield (from C=CCC[C@@](OCc1ccccc1)(c1nnc(-c2nc(NC(CC=C)c3ncccn3)c(C(F)(F)F)cc2[N+](=O)[O-])o1)C(F)(F)F, rcm bond, 14-membered ring, Zhan catalyst-1B, DCE, 2.66 mM, 83.0 °C, 16.0 h) of 49%.

Under “from C=CCC[C@@](OCc1ccccc1)(c1nnc(-c2nc(NC3(CC=C)CCCC3)c(C(F)(F)F)cc2[N+](=O)[O-])o1)C(F)(F)F, rcm bond, 14-membered ring, Zhan catalyst-1B, DCE, 6.3 mM, 70.0 °C, 2.5 h”, `O=[N+]([O-])c1cc(C(F)(F)F)c2nc1-c1nnc(o1)[C@@](OCc1ccccc1)(C(F)(F)F)CCC=CCC1(CCCC1)N2` (mixture of isomers) displayed a ring closure, isolated yield of 27%.

As to `CC(C)(C)OC(=O)Nc1cc(C(F)(F)F)c2nc1-c1nnc(o1)C(OCc1ccccc1)(C(F)(F)F)CCCCC1CCN2C1` (stereo not shown), for the setting “from CC(C)(C)OC(=O)Nc1cc(C(F)(F)F)c(Br)nc1-c1nnc(C(CCCCC2CCNC2)(OCc2ccccc2)C(F)(F)F)o1, snar bond, 14-membered ring, DIEA, MeCN, 6.33 mM, 80.0 °C, 16.0 h”, the ring closure, isolated yield was 79%.

In turn, `CC1(C)CCCC(OCc2ccccc2)(C(F)(F)F)C(=O)NNC(=O)c2nc(c(C(F)(F)F)cc2[N+](=O)[O-])NCC1` (stereo not shown) showed a ring closure, isolated yield (from CC(C)(CCCC(OCc1ccccc1)(C(=O)O)C(F)(F)F)CCNc1nc(C(=O)O)c([N+](=O)[O-])cc1C(F)(F)F, crosslinker bond, 15-membered ring, hydrazine/BOP/HOAt/DIEA, DMF, 2.1 mM, 30.0 °C) of 84%.

For the molecule `CC(C)(C)OC(=O)Nc1cc(C(F)(F)F)c2nc1-c1nnc(o1)C(OCc1ccccc1)(C(F)(F)F)CCCC(=O)N1CCN2CC1` (stereo not shown), for the setting “from CC(C)(C)OC(=O)Nc1cc(C(F)(F)F)c(N2CCNCC2)nc1-c1nnc(C(CCCC(=O)O)(OCc2ccccc2)C(F)(F)F)o1, amide bond, 15-membered ring, HATU/DIEA, DMF, 14.5 mM, 25.0 °C, 0.083 h”, the ring closure, isolated yield was 80%.

`O=[N+]([O-])c1cc(C(F)(F)F)c2nc1-c1nnc(o1)[C@@](OCc1ccccc1)(C(F)(F)F)CCC=CCC1(CCOC1)N2` (mixture of isomers) yielded a ring closure, isolated yield (from C=CCC[C@@](OCc1ccccc1)(c1nnc(-c2nc(NC3(CC=C)CCOC3)c(C(F)(F)F)cc2[N+](=O)[O-])o1)C(F)(F)F, rcm bond, 14-membered ring, Zhan catalyst-1B, DCE, 3.17 mM, 60.0 °C, 3.75 h) of 82%.

Regarding `O=[N+]([O-])c1cc(C(F)(F)F)c2nc1-c1nnc(o1)C(OCc1ccccc1)(C(F)(F)F)CCC=CCC1CCS(=O)(=O)N21` (mixture of isomers), where the note is “from C=CCCC(OCc1ccccc1)(c1nnc(-c2nc(N3C(CC=C)CCS3(=O)=O)c(C(F)(F)F)cc2[N+](=O)[O-])o1)C(F)(F)F, rcm bond, 14-membered ring, Zhan-1B, DCE, 4.72 mM, 75.0 °C, 6.0 h”, the ring closure, isolated yield was 19%.

Regarding `CC1(C)CCC=CC[C@@](OCc2ccccc2)(C(F)(F)F)C2=NN=C(O2)c2nc(c(C(F)(F)F)cc2N(C(=O)OC(C)(C)C)C(=O)OC(C)(C)C)N1` (mixture of isomers), the ring closure, isolated yield (from C=CCCC(C)(C)Nc1nc(-c2nnc([C@](CC=C)(OCc3ccccc3)C(F)(F)F)o2)c(N(C(=O)OC(C)(C)C)C(=O)OC(C)(C)C)cc1C(F)(F)F, rcm bond, 14-membered ring, Zhan catalyst-1B, toluene, 8.66 mM, 70.0 °C, 3.0 h) was 62%.

`COCCN1CCC=CCCC(OCc2ccccc2)(C(F)(F)F)C2=NN=C(O2)c2nc1c(C(F)(F)F)cc2NC(=O)OC(C)(C)C` (mixture of isomers): under “from C=CCCN(CCOC)c1nc(-c2nnc(C(CCC=C)(OCc3ccccc3)C(F)(F)F)o2)c(NC(=O)OC(C)(C)C)cc1C(F)(F)F, rcm bond, 14-membered ring, Zhan-1B (19 mol%), DCE, 3.22 mM, 70.0 °C, 3.0 h”, the ring closure, isolated yield came out at 60%.

Molecule `O=[N+]([O-])c1cc(C(F)(F)F)c2nc1-c1nnc(o1)C(OCc1ccccc1)(C(F)(F)F)CCC=CCCN2CCOCc1ccccc1` (mixture of isomers) yielded a ring closure, isolated yield (from C=CCCN(CCOCc1ccccc1)c1nc(-c2nnc(C(CCC=C)(OCc3ccccc3)C(F)(F)F)o2)c([N+](=O)[O-])cc1C(F)(F)F, rcm bond, 14-membered ring, Zhan-1B (25 mol%), DCE, 2.75 mM, 75.0 °C, 2.0 h) of 59%.

Turning to `CC(C)(C)OC(=O)Nc1cc(C(F)(F)F)c2nc1-c1nnc(o1)[C@](O)(C(F)(F)F)c1cc(ccc1F)C=CC[C@@H]1CCCN21` (mixture of isomers), for the setting “from C=CC[C@@H]1CCCN1c1nc(-c2nnc([C@@](O)(c3cc(I)ccc3F)C(F)(F)F)o2)c(NC(=O)OC(C)(C)C)cc1C(F)(F)F, cc_pd bond, 15-membered ring, Pd(OAc)2/P(o-tol)3/Et3N, MeCN, 9.5 mM, 80.0 °C, 22.0 h”, the ring closure, isolated yield worked out at 56%.

Under “from C=CCCC(OCc1ccccc1)c1nnc(-c2nc(N3CCC[C@H]3CC=C)c(C(F)(F)F)cc2NC(=O)OC(C)(C)C)o1, rcm bond, 14-membered ring, Zhan-1B (15 mol%), DCE, 6.77 mM, 70.0 °C, 20.0 h”, `CC(C)(C)OC(=O)Nc1cc(C(F)(F)F)c2nc1-c1nnc(o1)C(OCc1ccccc1)CCC=CC[C@@H]1CCCN21` (mixture of isomers) came in with a ring closure, isolated yield of 6%.

Molecule `O=[N+]([O-])c1cc(C(F)(F)F)c2nc1-c1nnc(o1)[C@@](OCc1ccccc1)(C(F)(F)F)CC=CCCC(c1ncco1)N2` (mixture of isomers) had a ring closure, isolated yield (from C=CCCC(Nc1nc(-c2nnc([C@@](CC=C)(OCc3ccccc3)C(F)(F)F)o2)c([N+](=O)[O-])cc1C(F)(F)F)c1ncco1, rcm bond, 14-membered ring, Zhan catalyst-1B, DCE, 2.9 mM, 70.0 °C, 4.25 h) of 46%.

Take `CC(C)N1CCC=CCCC(OCc2ccccc2)(C(F)(F)F)C2=NN=C(O2)c2nc1c(C(F)(F)F)cc2[N+](=O)[O-]` (mixture of isomers): the ring closure, isolated yield (from C=CCCN(c1nc(-c2nnc(C(CCC=C)(OCc3ccccc3)C(F)(F)F)o2)c([N+](=O)[O-])cc1C(F)(F)F)C(C)C, rcm bond, 14-membered ring, Zhan-1B, DCE, 2.53 mM, 75.0 °C, 3.0 h) came to 84%.

`CN1CCC=CCCC(OCc2ccccc2)(C(F)(F)F)C2=NN=C(O2)c2nc1c(S(C)(=O)=O)cc2NC(=O)OC(C)(C)C` (mixture of isomers) registered a ring closure, isolated yield (from C=CCCN(C)c1nc(-c2nnc(C(CCC=C)(OCc3ccccc3)C(F)(F)F)o2)c(NC(=O)OC(C)(C)C)cc1S(C)(=O)=O, rcm bond, 14-membered ring, Zhan-1B (two charges), DCE, 4.01 mM, 70.0 °C, 14.0 h) of 41%.

`CC(C)(C)OC(=O)Nc1cc(C(F)(F)F)c2nc1-c1nnc(o1)C(OCc1ccccc1)(C(F)(F)F)CCC=CC[C@@H]1COCC(=O)N21` (mixture of isomers) displayed a ring closure, isolated yield (from C=CCCC(OCc1ccccc1)(c1nnc(-c2nc(N3C(=O)COC[C@H]3CC=C)c(C(F)(F)F)cc2NC(=O)OC(C)(C)C)o1)C(F)(F)F, rcm bond, 14-membered ring, Zhan-1B, DCE, 3.35 mM, 75.0 °C, 4.0 h) of 73%.

On to `CC1(C)CCC=CC(F)(F)C(OCc2ccccc2)C2=NN=C(O2)c2nc(c(C(F)(F)F)cc2[N+](=O)[O-])N1` (mixture of isomers), for which the ring closure, isolated yield (from C=CCCC(C)(C)Nc1nc(-c2nnc(C(OCc3ccccc3)C(F)(F)C=C)o2)c([N+](=O)[O-])cc1C(F)(F)F, rcm bond, 14-membered ring, Grubbs II, 1,2-dichloroethane, 1.85 mM, 75.0 °C, 1.67 h) was determined as 40%.

`CC1(C)Nc2nc(c([N+](=O)[O-])cc2C(F)(F)F)C2=NN=C(O2)[C@@](OCc2ccccc2)(C(F)(F)F)CC=CCC1OCc1ccccc1` (mixture of isomers) gave a ring closure, isolated yield (from C=CCC(OCc1ccccc1)C(C)(C)Nc1nc(-c2nnc([C@@](CC=C)(OCc3ccccc3)C(F)(F)F)o2)c([N+](=O)[O-])cc1C(F)(F)F, rcm bond, 14-membered ring, Zhan catalyst-1B, DCE, 2.36 mM, 70.0 °C, 18.0 h) of 76%.

Take `CCOC(=O)CN1CCC=CCCC(OCc2ccccc2)(C(F)(F)F)C2=NN=C(O2)c2nc1c(C(F)(F)F)cc2N(C(=O)OC(C)(C)C)C(=O)OC(C)(C)C` (mixture of isomers): the ring closure, isolated yield (from C=CCCN(CC(=O)OCC)c1nc(-c2nnc(C(CCC=C)(OCc3ccccc3)C(F)(F)F)o2)c(N(C(=O)OC(C)(C)C)C(=O)OC(C)(C)C)cc1C(F)(F)F, rcm bond, 14-membered ring, Zhan-1B, DCE, 2.3 mM, 75.0 °C, 2.0 h) was determined as 92%.
